Laboratory results: ChEMBL document CHEMBL1131383, “Syntheses and biological evaluation of indolocarbazoles, analogues of rebeccamycin, modified at the imide heterocycle” (J Med Chem, 1998)
Converted amounts (≈) assume the structure as drawn.

Experiments:
B16 = assay: Antiproliferative activity measured against murine B16 melanoma cells; type: functional, cell-based; conditions: Mus musculus
Bacillus cereus [1] = assay: Antimicrobial activity is tested against Bacillus cereus; type: functional
CEM-SS [2] = assay: Inhibitory concentration is tested in HIV-1 Lai-infected CEM-SS cells; type: functional, cell-based; conditions: Homo sapiens
CEM-SS [3] = assay: Cytotoxic concentration is tested against CEM-SS cells; type: functional; conditions: Homo sapiens
P388 = assay: Antiproliferative activity measured against P388 Leukemia cells; type: functional, cell-based, Mus musculus
P388CPT5 = assay: Antiproliferative activity measured against P388CPT5 cells resistant to Topoisomerase I inhibitor Camptothecin; type: functional, cell-based; conditions: Mus musculus
[4] = target: T1, DNA topoisomerase 1 (Homo sapiens) (UniProt P11387); assay: Inhibition of human Topoisomerase I
T1 sequence (whole entry): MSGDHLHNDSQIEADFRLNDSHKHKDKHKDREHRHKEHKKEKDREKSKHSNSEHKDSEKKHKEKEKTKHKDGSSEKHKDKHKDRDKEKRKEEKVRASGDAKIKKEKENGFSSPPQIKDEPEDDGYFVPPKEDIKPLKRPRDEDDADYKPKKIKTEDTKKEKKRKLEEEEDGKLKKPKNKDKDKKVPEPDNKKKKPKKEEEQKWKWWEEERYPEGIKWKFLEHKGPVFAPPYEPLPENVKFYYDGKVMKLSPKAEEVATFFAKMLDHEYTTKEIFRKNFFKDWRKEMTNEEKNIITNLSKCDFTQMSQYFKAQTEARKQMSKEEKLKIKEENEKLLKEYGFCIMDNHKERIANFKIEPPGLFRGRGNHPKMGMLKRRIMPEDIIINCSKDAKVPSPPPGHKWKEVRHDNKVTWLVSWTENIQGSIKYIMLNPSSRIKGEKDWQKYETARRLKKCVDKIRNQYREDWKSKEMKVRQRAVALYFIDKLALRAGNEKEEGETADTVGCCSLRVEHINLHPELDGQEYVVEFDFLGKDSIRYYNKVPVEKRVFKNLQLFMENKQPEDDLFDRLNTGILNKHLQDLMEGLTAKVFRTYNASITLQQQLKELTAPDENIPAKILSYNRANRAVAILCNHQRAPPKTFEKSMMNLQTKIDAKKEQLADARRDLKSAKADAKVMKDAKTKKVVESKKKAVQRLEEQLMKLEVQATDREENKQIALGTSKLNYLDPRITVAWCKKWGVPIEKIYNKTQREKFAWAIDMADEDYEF

[5] = Selectivity was measured [Selectivity = (CC50/IC50) against HIV-1 infected CEM-SS cells]; type: functional
Protein kinase C (PKC) = assay: Inhibition of Protein kinase C; type: protein assay
Bacillus cereus [6] = assay: In Vitro growth inhibitory effect of compounds against Gram-Positive Bacteria Bacillus cereus ATCC 14579; type: functional
Streptomyces chartreusis = assay: In Vitro growth inhibitory effect of compounds against Gram-Positive Bacteria Streptomyces chartreusis NRRL11407; type: functional

IC50 (B16) [µM] | MIC (Bacillus cereus [1]) [µM] | IC50 (CEM-SS [2]) [µM] | IC50 (P388; Mus musculus, P388) [µM] | IC50 (P388CPT5) [µM] | MIC [4] [µM] | IC50 (Protein kinase C (PKC)) [µM] | IC50 (P388; p388) [µM] | SMILES | CC50 (CEM-SS [3]) [µM] | Selectivity index [5] | Inhibition zone (Bacillus cereus [6]) [mm] | Inhibition zone (Streptomyces chartreusis) [mm]
13 | > 75 | 4.85 | 0.91 | 7.58 | 1.52 (≈ 1 µg/mL) |  |  | CO[C@H]1[C@H](O)[C@@H](O)[C@H](n2c3ccc(Br)cc3c3c4c(c5c6cc(Br)ccc6[nH]c5c32)C(=O)OC4=O)O[C@@H]1CO | 9.39 | 1.9 |  | 
 | 25 | 4.1 |  | 3 | 0.02 | 3.7 |  | CO[C@H]1[C@H](O)[C@@H](O)[C@H](n2c3ccccc3c3c4c(c5c6ccccc6[nH]c5c32)C(=O)NC4)O[C@@H]1CO.CO[C@H]1[C@H](O)[C@@H](O)[C@H](n2c3ccccc3c3c4c(c5c6ccccc6[nH]c5c32)CNC4=O)O[C@@H]1CO | 14.3 | 3.5 |  | 
 | 5.6 | 0.36 | > 125 | 3 | 1.8 | 28.8 |  | CO[C@H]1[C@H](O)[C@@H](O)[C@H](n2c3c(Cl)cccc3c3c4c(c5c6cccc(Cl)c6[nH]c5c32)C(=O)NC4)O[C@@H]1CO.CO[C@H]1[C@H](O)[C@@H](O)[C@H](n2c3c(Cl)cccc3c3c4c(c5c6cccc(Cl)c6[nH]c5c32)CNC4=O)O[C@@H]1CO | 1.15 | 3.2 |  | 
0.9 | > 100 | 0.16 | 0.69 | > 20 | 0.59 (≈ 0.296 µg/mL) |  |  | CO[C@H]1[C@H](O)[C@@H](O)[C@H](n2c3ccccc3c3c4c(c5c6ccccc6[nH]c5c32)C(=O)NC4=O)O[C@@H]1CO | 0.9 | 5.6 | 7 | 
 | > 85 | 5.06 |  | 0.6 |  | > 100 | 0.61 | CO[C@H]1[C@H](O)[C@@H](O)[C@H](n2c3c(Cl)cccc3c3c4c(c5c6cccc(Cl)c6[nH]c5c32)C(=O)N(C)C4=O)O[C@@H]1CO (stereo in doubt; A) | 8.06 | 1.6 |  | 
0.48 | > 88 | 0.31 | 0.52 | 4.03 | 17.6 |  |  | CO[C@H]1[C@H](O)[C@@H](O)[C@H](n2c3c(Cl)cccc3c3c4c(c5c6cccc(Cl)c6[nH]c5c32)C(=O)N(C)C4)O[C@@H]1CO.CO[C@H]1[C@H](O)[C@@H](O)[C@H](n2c3c(Cl)cccc3c3c4c(c5c6cccc(Cl)c6[nH]c5c32)CN(C)C4=O)O[C@@H]1CO | 1.72 | 5.5 |  | 9
 | 10.9 (≈ 6.22 µg/mL) | 0.52 | 1.22 | 10.5 |  |  |  | CO[C@H]1[C@H](O)[C@@H](O)[C@H](n2c3c(Cl)cccc3c3c4c(c5c6cccc(Cl)c6[nH]c5c32)C(=O)NC4=O)O[C@@H]1CO [REBECCAMYCIN] | 1.05 | 2 | 9 | 9
5 | 24 | 0.6 | 3.39 | > 19.9 | 19.9 |  |  | CO[C@H]1[C@H](O)[C@@H](O)[C@H](n2c3ccccc3c3c4c(c5c6ccccc6[nH]c5c32)C(=O)N(C)C4)O[C@@H]1CO.CO[C@H]1[C@H](O)[C@@H](O)[C@H](n2c3ccccc3c3c4c(c5c6ccccc6[nH]c5c32)CN(C)C4=O)O[C@@H]1CO | 8.38 | 14 | 9 | 9
31 | > 97 | > 9.7 | > 19 |  | > 19 |  |  | CO[C@H]1[C@H](O)[C@@H](O)[C@H](n2c3ccccc3c3c4c(c5c6ccccc6n(C)c5c32)C(=O)OC4=O)O[C@@H]1CO | > 9.7 |  |  | 7
 | > 94 | > 9.4 | > 19 |  | 5.7 (≈ 3.02 µg/mL) |  |  | CO[C@H]1[C@H](OC=O)[C@@H](O)[C@H](n2c3ccccc3c3c4c(c5c6ccccc6[nH]c5c32)C(=O)OC4=O)O[C@@H]1CO | > 9.4 |  | 8 | 12
17.5 | > 99 | > 1.98 | 6.36 | > 20 | 1.99 (≈ 1 µg/mL) |  |  | CO[C@H]1[C@H](O)[C@@H](O)[C@H](n2c3ccccc3c3c4c(c5c6ccccc6[nH]c5c32)C(=O)OC4=O)O[C@@H]1CO | > 1.98 |  |  | 7
8 | 94 (≈ 49.8 µg/mL) | > 19 | > 19 |  | > 19 |  |  | CO[C@H]1[C@H](O)[C@@H](O)[C@H](n2c3ccccc3c3c4c(c5c6ccccc6n(C)c5c32)C(=O)N(C)C4=O)O[C@@H]1CO | > 19 |  | 8 | 12
 | 1.55 (≈ 0.799 µg/mL) | 4.17 | 1.06 | 0.7 |  | > 100 |  | CO[C@H]1[C@H](O)[C@@H](O)[C@H](n2c3ccccc3c3c4c(c5c6ccccc6[nH]c5c32)C(=O)N(C)C4=O)O[C@@H]1CO | 7.96 | 1.9 |  | 
